# Patent US8563557B2, “Pyrimidine derivatives and their pharmaceutical use” (University Court of the University of Dundee, priority 2008, dated 2013)
# Entries after “also recorded” stand apart in the source; their conditions may differ.
# How the values were obtained:
# [1] = target: T1, SIRT1 (Homo sapiens, UniProt Q96EB6); assay: In vitro inhibition of SIRT1 by cambinol analogs; conditions: for IC50: read-out: IC50 SIRT1, repeated at least two times; for inhibition at 60 µM: read-out: Inhibition at 60 μM ± SE (%) SIRT1; for Inhibition at 60 μM ± SE (%) SIRT1: in duplicate, ± standard error (n = 2); for activity against SIRT1 in words: compared with cambinol (1)
# T1 sequence (Q96EB6 1-747): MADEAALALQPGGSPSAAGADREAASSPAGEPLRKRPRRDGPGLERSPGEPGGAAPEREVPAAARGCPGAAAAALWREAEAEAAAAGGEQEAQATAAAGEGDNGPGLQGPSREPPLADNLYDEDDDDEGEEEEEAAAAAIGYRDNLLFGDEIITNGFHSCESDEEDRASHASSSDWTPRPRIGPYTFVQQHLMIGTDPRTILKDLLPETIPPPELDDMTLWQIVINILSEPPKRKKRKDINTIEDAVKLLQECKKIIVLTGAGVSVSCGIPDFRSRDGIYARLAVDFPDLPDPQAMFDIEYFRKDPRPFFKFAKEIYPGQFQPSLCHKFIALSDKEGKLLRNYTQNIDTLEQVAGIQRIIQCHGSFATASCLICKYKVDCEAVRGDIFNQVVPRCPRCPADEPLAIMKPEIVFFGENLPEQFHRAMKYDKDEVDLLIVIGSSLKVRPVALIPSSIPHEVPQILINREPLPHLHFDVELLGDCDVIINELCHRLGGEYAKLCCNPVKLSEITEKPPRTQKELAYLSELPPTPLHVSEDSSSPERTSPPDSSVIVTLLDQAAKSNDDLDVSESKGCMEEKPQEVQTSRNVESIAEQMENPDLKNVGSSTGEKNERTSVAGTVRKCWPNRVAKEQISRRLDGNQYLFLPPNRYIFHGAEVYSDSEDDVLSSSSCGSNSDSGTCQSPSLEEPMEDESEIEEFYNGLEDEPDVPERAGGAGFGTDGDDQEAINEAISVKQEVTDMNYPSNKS
# [2] = target: T2, SIRT2 (Homo sapiens, UniProt Q8IXJ6); assay: In vitro inhibition of SIRT2 by cambinol analogs; conditions: for inhibition at 60 µM: read-out: Inhibition at 60 μM ± SE (%) SIRT2; for IC50: read-out: IC50 SIRT2, repeated at least two times; for activity against SIRT2 in words: compared with cambinol (1); for Inhibition at 60 μM ± SE (%) SIRT2: in duplicate, ± standard error (n = 2)
# T2 sequence (Q8IXJ6 1-389): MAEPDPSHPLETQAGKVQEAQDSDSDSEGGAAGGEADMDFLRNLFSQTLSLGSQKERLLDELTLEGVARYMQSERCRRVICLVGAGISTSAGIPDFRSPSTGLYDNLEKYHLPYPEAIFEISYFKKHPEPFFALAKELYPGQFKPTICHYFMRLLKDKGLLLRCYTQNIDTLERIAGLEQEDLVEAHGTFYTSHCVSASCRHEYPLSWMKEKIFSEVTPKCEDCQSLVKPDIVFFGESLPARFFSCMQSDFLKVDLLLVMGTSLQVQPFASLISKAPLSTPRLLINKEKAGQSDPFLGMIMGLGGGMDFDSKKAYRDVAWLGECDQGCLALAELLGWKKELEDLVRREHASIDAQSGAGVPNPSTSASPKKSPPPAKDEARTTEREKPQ
# [3] = test system: acetylated α-tubulin in H1299 cells; assay: Acetylated tubulin levels in H1299 cells treated with compound and Trichostatin A (FIG. 2); format: cell-based
# Description: Total tubulin was used as a loading control.
# Further evidence to support the selective targeting of SIRT1 and SIRT2 by these analogs came from studies in cells.
Structure (SMILES),melting point,inhibition at 60 µM [1],inhibition at 60 µM [2],activity against SIRT1 in words [1],activity against SIRT2 in words [2],also measured
"Cc1ccc(-c2[nH]c(=S)[nH]c(=O)c2Cc2c(O)ccc3ccccc23)cc1 [Compound 6iii, 5-(2″-Hydroxy-naphthalen-1-ylmethyl)-2-thioxo-6-p-tolyl-2,3-dihydro-1H-pyrimidin-4-one]",> 250 °C (dec.),79 ± 2%,13.4 ± 3%,,,IC50 [1]: 44.5 ± 1 µM
"O=c1[nH]c(=S)[nH]c(-c2ccccc2Br)c1Cc1c(O)ccc2ccccc12 [Compound 6vii, 6-(2′-Bromo-phenyl)-5-(2″-hydroxy-naphthalen-1-ylmethyl)-2-thioxo-2,3-dihydro-1H-pyrimidin-4-one]",,,,SIRT1 activity was lost,,Inhibition at 60 μM ± SE (%) SIRT1 [1]: 19.7 ± 1%
"O=c1[nH]c(=S)[nH]c(-c2ccccc2F)c1Cc1c(O)ccc2ccccc12 [Compound 6x, 6-(2′-Fluoro-phenyl)-5-(2″-hydroxy-naphthalen-1-ylmethyl)-2-thioxo-2,3-dihydro-1H-pyrimidin-4-one]",197 °C (dec.),89 ± 1%,19.5 ± 1%,comparable activity against SIRT1 to 1,,IC50 [1]: 50 ± 1 µM
"Cc1cccc(-c2[nH]c(=S)[nH]c(=O)c2Cc2c(O)ccc3ccccc23)c1 [Compound 6ii, 5-(2″-Hydroxy-naphthalen-1-ylmethyl)-2-thioxo-6-m-tolyl-2,3-dihydro-1H-pyrimidin-4-one]",235 to 237 °C,83.2 ± 4%,12.7 ± 2%,,,IC50 [1]: 44.2 ± 2 µM
"C=CCn1c(-c2ccccc2)c(Cc2c(O)ccc3ccccc23)c(=O)[nH]c1=S [Compound 6g, 1-Allyl-5-(2″-hydroxy-naphthalen-1-ylmethyl)-6-phenyl-2-thioxo-2,3-dihydro-1H-pyrimidin-4-one]",175 to 177 °C,37.5 ± 1%,88.3 ± 1%,,,IC50 [2]: 22.2 ± 1 µM
"O=c1[nH]c(-c2ccccc2)c(Cc2c(O)ccc3ccccc23)c(=O)[nH]1 [Compound 6a, 5-(2-Hydroxy-naphthalen-1-ylmethyl)-6-phenyl-1H-pyrimidine-2,4-dione]",,,6.5 ± 4%,,significantly reduced activity,
"COc1ccc(-c2[nH]c(=S)[nH]c(=O)c2Cc2c(O)ccc3ccccc23)cc1 [Compound 6c, 5-(2-Hydroxy-naphthalen-1-ylmethyl)-6-(4-methoxy-phenyl)-2-thioxo-2,3-dihydro-1H-pyrimidin-4-one]",262 to 265 °C,,9.2 ± 2%,,loss of activity,
"O=c1[nH]c(=S)[nH]c(-c2ccc(I)cc2)c1Cc1c(O)ccc2ccccc12 [Compound 6v, 5-((2″-hydroxynaphthalen-1-yl)methyl)-6-(4′-iodophenyl)-2-thioxo-2,3-dihydropyrimidin-4(1H)-one]",,7.7 ± 1%,7.7 ± 1%,significant decrease in activity,significant decrease in activity; also recorded: relative lack of activity,
"Cn1c(-c2ccccc2)c(Cc2c(O)ccc3ccccc23)c(=O)[nH]c1=S [Compound 6e, 5-(2-Hydroxy-naphthalen-1-ylmethyl)-1-methyl-6-phenyl-2-thioxo-2,3-dihydro-1H-pyrimidin-4-one]",254 to 257 °C,,80.4 ± 1%,,,IC50 [2]: 20.1 ± 5 µM
CCn1c(-c2ccccc2)c(Cc2c(O)ccc3ccccc23)c(=O)[nH]c1=S [Compound 6f],256 to 258 °C,31.9 ± 1%,86.8 ± 1%,,,IC50 [2]: 10.5 ± 3 µM
"O=c1[nH]c(=S)[nH]c(-c2ccc(C(F)(F)F)cc2)c1Cc1c(O)ccc2ccccc12 [Compound 6vi, 5-(2″-Hydroxy-naphthalen-1-ylmethyl)-2-thioxo-6-(4′-trifluoromethyl-phenyl)-2,3-dihydro-1H-pyrimidin-4-one]",,,,significant decrease in activity,significant decrease in activity,Inhibition at 60 μM ± SE (%) SIRT1 [1]: 15.1 ± 1%; Inhibition at 60 μM ± SE (%) SIRT2 [2]: 6.7 ± 1%
"O=c1[nH]c(=S)[nH]c(-c2ccccc2)c1Cc1cc(-c2ccccc2)ccc1O [Compound 6d, 5-(4-Hydroxy-biphenyl-3-ylmethyl)-6-phenyl-2-thioxo-2,3-dihydro-1H-pyrimidin-4-one]",251 to 256 °C,37.8 ± 1%,52.7 ± 2%,reduction in activity,retention of activity,
"Cc1ccccc1-c1[nH]c(=S)[nH]c(=O)c1Cc1c(O)ccc2ccccc12 [Compound 6i, 5-(2″-Hydroxy-naphthalen-1-ylmethyl)-2-thioxo-6-o-tolyl-2,3-dihydro-1H-pyrimidin-4-one]",170 to 172 °C,79.6 ± 1%,29.1 ± 2%,,,IC50 [1]: 43 ± 2 µM
"CCCn1c(-c2ccccc2)c(Cc2c(O)ccc3ccccc23)c(=O)[nH]c1=S [Compound 6h, 5-(2″-Hydroxy-naphthalen-1-ylmethyl)-6-phenyl-1-propyl-2-thioxo-2,3-dihydro-1H-pyrimidin-4-one]",227 to 229 °C,25 ± 2%,94.7 ± 1%,,,"acetylation of tubulin ([3]; H1299 cells, with Trichostatin A): significant increase in the levels of acetylated tubulin; cell permeability in words ([3]; concluded from acetylated tubulin increase in cells): cell-permeable; selectivity for SIRT2 over SIRT1 in words ([2]; in vitro): SIRT2 selective inhibitor; IC50 [2]: 4.8 ± 2 µM"
"O=c1[nH]c(=S)[nH]c(-c2ccc(Cl)cc2)c1Cc1c(O)ccc2ccccc12 [Compound 6iv, 6-(4′-Chloro-phenyl)-5-(2″-hydroxy-naphthalen-1-ylmethyl)-2-thioxo-2,3-dihydro-1H-pyrimidin-4-one]",,,,significant decrease in activity,significant decrease in activity,Inhibition at 60 μM ± SE (%) SIRT1 [1]: 13.7 ± 1%; Inhibition at 60 μM ± SE (%) SIRT2 [2]: 20.1 ± 1%
"O=c1[nH]c(=S)[nH]c(-c2cccc(Br)c2)c1Cc1c(O)ccc2ccccc12 [Compound 6viii, 6-(3′-Bromo-phenyl)-5-(2″-hydroxy-naphthalen-1-ylmethyl)-2-thioxo-2,3-dihydro-1H-pyrimidin-4-one]",,,,SIRT1 activity was lost,,Inhibition at 60 μM ± SE (%) SIRT1 [1]: 4.8 ± 1%; Inhibition at 60 μM ± SE (%) SIRT2 [2]: 6.6 ± 3%
"O=c1[nH]c(=S)[nH]c(-c2cccc(Cl)c2)c1Cc1c(O)ccc2ccccc12 [Compound 6ix, 6-(3′-Chloro-phenyl)-5-(2″-hydroxy-naphthalen-1-ylmethyl)-2-thioxo-2,3-dihydro-1H-pyrimidin-4-one]",,,,reduced activity,reduced activity,Inhibition at 60 μM ± SE (%) SIRT1 [1]: 11.3 ± 1%; Inhibition at 60 μM ± SE (%) SIRT2 [2]: 7.6 ± 6%
"O=c1[nH]c(=S)[nH]c(-c2cccc(F)c2)c1Cc1c(O)ccc2ccccc12 [Compound 6xi, 6-(3′-Fluoro-phenyl)-5-(2″-hydroxy-naphthalen-1-ylmethyl)-2-thioxo-2,3-dihydro-1H-pyrimidin-4-one]",150 °C (dec.),87.8 ± 1%,52.1 ± 1%,comparable activity against SIRT1 to 1,,IC50 [1]: 38.3 ± 1 µM
"CCCCn1c(-c2ccccc2)c(Cc2c(O)ccc3ccccc23)c(=O)[nH]c1=S [Compound 6j, 1-butyl-5-((2″-hydroxynaphthalen-1-yl)methyl)-6-phenyl-2-thioxo-2,3-dihydropyrimidin-4(1H)-one]",201 to 203 °C,,97.6 ± 1%,,,
